Read-outs that look alike come from different tables or passages of the source.
Key:
[1] = biological target: Human Dopamine D3 Receptor (Homo sapiens (Human), UniProt P35462); test: Radioligand-receptor binding assay, dopamine D3 receptor ([3H]-methylspiperone); settings: [3H]-methylspiperone 0.5 nM, human D3 receptor membrane
Protocol: Determination of the Binding Ability of the Compounds of the Present Invention to Dopamine D3 Receptor
The objective of this test example is to determine the affinity of the compounds for dopamine D3 receptor.
Assay buffer: 50 mM Tris-HCl pH 7.4, 10 mM MgCl2; wash solution: 50 mM Tris-HCl pH 7.4, stored at 4° C.; 0.5% PEI solution: 0.5 g PEI dissolve in 100 mL ddH2O, 4° C. storage of spare.
(§1) 5 μL of the test compounds (0.005 nM to 100 nM, 10 concentrations in total) and 100 μL of buffer were added to a 96-well assay plate. 1 μL of cell membrane and 300 μL of buffer were added to each well, and the plate was shaken at 600 rpm for 5 min. A mixed solution of 100 μL of buffer and [^3H]-methylspiperone (the final concentration was 0.5 nM) was added to each well. The plate was shaken at 600 rpm for 5 min, and incubated at 27° C. for 30 min. The […]-96 GF/B filter plate pre-incubated with 0.5% PEI for 1 h was washed twice with the buffer (1 mL/well). The cell membrane suspension was added to the […]-96 GF/B filter plate, washed 4 times, and incubated at 55° C. for 10 min. 40 μL of ULTIMA GOLD was added to each well, and liquid scintillation counting was carried out.
(§2) The CPM (Counts per minute) values were determined by TopCount. […] The 10 concentrations of the compound were from 100 nM to 0.005 nM after 3-fold dilution of the reaction system. The percent inhibition rate and ten-point concentration data were fitted to the parametric nonlinear logistic equation by using GraphPad prism to calculate the IC50 values of the compound.

5-HT2A receptor [2] = biological target: T1, 5-HT2A receptor (Homo sapiens (Human), UniProt P28223); test: Radioligand-receptor binding assay, 5-HT2A receptor ([3H]-Ketanserin); settings: [3H]-Ketanserin 2 nM, human 5-HT2A receptor membrane; read-out: 5HT-2A binding activity IC50
Protocol: Determination of the Binding Ability of the Compounds of the Present Invention to 5-HT2A Receptor
The objective of this test example is to determine the affinity of the compounds for 5-HT2A receptor.
Assay buffer: 50 mM Tris-HCl pH 7.4, 4 mM CaCl2); wash solution: 50 mM Tris-HCl pH 7.4, stored at 4° C.; 0.5% PEI solution: 0.5 g PEI dissolve in 100 mL ddH2O, 4° C. storage of spare.
as §1, with “plate. 1.5” for “plate. 1”, “300 L” for “300 μL”, “each well. The” for “each well, and the”, “and [^3H]-Ketanserin” for “and [^3H]-methylspiperone”, “was 2” for “was 0.5”
as §2

[3] = Pharmacokinetic assay in Balb/c mice (plasma and brain tissue); assay type: in vivo; settings: p.o. 5 mg/kg; for AUC(0-t) / AUC(0-inf) / Cmax / MRT / half-life: male, Balb/c, mouse, po; for AUC(0-t): read-out: Area under curve AUC0-t; for AUC(0-inf): read-out: Area under curve AUC0-∞; for Cmax: read-out: Plasma concentration Cmax; for MRT: read-out: Average residence time MRT; for half-life: read-out: Half life t1/2 (converted)
Protocol: III. Pharmacokinetic Assay in Balb/c Mice
Balb/c mice were used as test animals. The pharmacokinetic behavior of the compounds of Examples of the present invention was studied in mouse body (plasma and brain tissue) by orally administration at a dose of 5 mg/kg.
Male Balb/c mice (12 mice per group), purchased from Shanghai Jiesijie Laboratory Animal Co., LTD, with Certificate No.: SCXK (Shanghai) 2013-0006 N0.311620400001794. • 2.3 Formulation of the preparation: […]
The test compound was dissolved in 0.5% CMC-Na (1% Tween80) by sonication to formulate a clear solution or homogeneous suspension. • 2.4 Administration:
After an overnight fast, male Balb/c mice (12 mice per group) were administered p.o. with the test compound at a dose of 5 mg/kg and a volume of 10 mL/kg. • 2.5 Sample collection:
0.2 mL of blood was taken from the heart of the mouse before administration and at 1, 2, 4, 8 and 24 hours after administration, and the mice were sacrificed with CO2. The samples were stored in EDTA-K2 tubes, and centrifuged for 6 minutes at 4° C., 6000 rpm to separate the plasma. The plasma samples were stored at −80° C. Whole brain tissue was taken out, weighed, placed in a 2 mL centrifuge tube, and stored at −80° C. • 2.6 Sample process:
1) 160 μL of acetonitrile was added to 40 μL of the plasma sample for precipitation, and then the mixture was centrifuged at 3500×g for 5 to 20 minutes.
2) 90 μL of acetonitrile containing internal standard (100 ng/mL) was added to 30 μL of the plasma and brain homogenate sample for precipitation, and then the mixture was centrifuged at 13000 rpm for 8 minutes.
3) 70 μL of water was added to 70 μL of the treated supernatant and mixed by vortex for 10 minutes. 20 μL of the solution was taken to analyze the concentration of the test compound by LC/MS/MS. LC/MS/MS analytical instrument: AB Sciex API 4000 Qtrap. • 2.7 Liquid chromatography analysis: • Liquid chromatography condition: Shimadzu LC-20AD pump • Chromatographic column: Agilent ZORBAX XDB-C18 (50×2.1 mm, 3.5 μm); Mobile phase: Eluent A was 0.1% formic acid in water, and Eluent B was acetonitrile • Flow rate: 0.4 mL/min • Elution time: 0-4.0 minutes the eluent is as follows:
The main parameters of pharmacokinetics were calculated by WinNonlin 6.1.

5-HT2A receptor [4] = biological target: T1, 5-HT2A receptor; test: Effect on calcium ion mobility in cells stably expressing 5-HT2A receptors (Flp-In-CHO-5HT2A, FLIPR); assay type: cell-based; settings: Flp-In-CHO-5HT2A cells, 5HT as agonist
Protocol: To determine the inhibitory effect of the compounds on 5-HT2A receptor.
Probenecid and BSA were added fresh on the day of the experiment.
The calcium signal values were determined by FLIPR. […] The percent inhibition rate and ten-point concentration data were fitted to the parametric nonlinear logistic equation by using GraphPad prism to calculate the IC50 values of the compound.

T1 sequence (P28223 whole entry): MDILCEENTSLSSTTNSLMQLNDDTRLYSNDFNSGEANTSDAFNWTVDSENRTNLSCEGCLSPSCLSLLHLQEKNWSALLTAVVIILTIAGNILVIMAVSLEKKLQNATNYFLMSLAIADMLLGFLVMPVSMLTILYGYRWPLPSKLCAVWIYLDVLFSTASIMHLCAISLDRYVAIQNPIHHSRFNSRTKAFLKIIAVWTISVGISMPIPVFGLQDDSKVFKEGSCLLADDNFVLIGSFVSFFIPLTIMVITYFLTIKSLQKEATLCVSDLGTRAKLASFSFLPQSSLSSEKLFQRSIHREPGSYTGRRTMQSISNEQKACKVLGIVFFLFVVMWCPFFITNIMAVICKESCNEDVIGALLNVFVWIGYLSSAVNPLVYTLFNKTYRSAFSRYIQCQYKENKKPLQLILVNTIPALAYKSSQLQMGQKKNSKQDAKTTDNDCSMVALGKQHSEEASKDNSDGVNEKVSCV
Sequence of Human Dopamine D3 Receptor (P35462 whole entry): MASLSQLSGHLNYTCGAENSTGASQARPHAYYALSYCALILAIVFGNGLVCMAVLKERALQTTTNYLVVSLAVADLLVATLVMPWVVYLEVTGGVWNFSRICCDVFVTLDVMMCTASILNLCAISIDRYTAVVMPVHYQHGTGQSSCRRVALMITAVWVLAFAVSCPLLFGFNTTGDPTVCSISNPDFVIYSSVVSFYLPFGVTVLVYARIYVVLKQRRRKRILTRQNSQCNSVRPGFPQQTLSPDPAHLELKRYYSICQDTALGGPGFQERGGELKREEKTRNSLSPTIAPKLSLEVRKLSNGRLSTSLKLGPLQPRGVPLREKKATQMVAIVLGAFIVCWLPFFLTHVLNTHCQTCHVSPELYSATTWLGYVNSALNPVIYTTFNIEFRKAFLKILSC

Work on `CC(C)(O)C(=O)N[C@H]1CC[C@H](CCN2CCN(c3cccc4sccc34)CC2)CC1` [Example 41, N-(Trans-4-(2-(4-(benzo[b]thiophen-4-yl)piperazin-1-yl)ethyl)cyclohexyl)-2-hydroxy-2-methylpropanamide] yielded an IC50 [1] of 1.03 nM, an IC50 (5-HT2A receptor [2]) of 0.43 nM and a Peak time tmax ([3]; Brain) of 1 h. The Peak time tmax ([3]; Plasma) was 1 h, the AUC(0-t) ([3]; Brain) was 8120 ng·h/mL and the AUC(0-inf) ([3]; Brain) was 13000 ng·h/mL. The Cmax ([3]; Brain) was 731 ng/mL, the AUC(0-t) ([3]; Plasma) was 5210 ng·h/mL and the AUC(0-inf) ([3]; Plasma) was 6370 ng·h/mL. For the same compound, the MRT ([3]; Plasma) was 13.5 h, the half-life ([3]; Plasma) was 612 min and the Cmax ([3]; Plasma) was 452 ng/mL.
Work on `O=C(N[C@H]1CC[C@H](CCN2CCN(c3cccc4sccc34)CC2)CC1)C1(O)CC1` [Example 42, N-(Trans-4-(2-(4-(benzo[b]thiophen-4-yl)piperazin-1-yl)ethyl)cyclohexyl)-1-hydroxycyclopropane-1-carboxamide] yielded an IC50 (5-HT2A receptor [4]) of 3.42 nM, an IC50 [1] of 0.2 nM and an IC50 (5-HT2A receptor [2]) of 0.26 nM. The Peak time tmax ([3]; Brain) was 1 h, the Peak time tmax ([3]; Plasma) was 1 h and the AUC(0-t) ([3]; Brain) was 3610 ng·h/mL. It also gave an AUC(0-inf) ([3]; Brain) of 3890 ng·h/mL, a Cmax ([3]; Brain) of 330 ng/mL and an AUC(0-t) ([3]; Plasma) of 4240 ng·h/mL. The AUC(0-inf) ([3]; Plasma) was 4370 ng·h/mL, the MRT ([3]; Plasma) was 6.84 h and the half-life ([3]; Plasma) was 290 min. The Cmax ([3]; Plasma) was 477 ng/mL.

Reference: patent US12459931B2, “Benzothiophene derivative regulator, preparation method therefor and use thereof” (Shanghai Hansoh Biomedical Co., Ltd., priority 2019, dated 2025)
